Assay results as given in patent publication US5637583A, “Aminocyclohexylesters and uses thereof” (University of British Columbia, priority 1994, dated 1997).
Counter-ions that a name gives are not always drawn. Like-named read-outs stand apart in the source and are kept apart here.

Key:
potassium channels = experiment: Electrical stimulation of left ventricle in rats (ERP; ancillary blockade of potassium channels); assay type: in vivo, rat; settings: infusion rate for 25% increase from control; anesthetized rats
Description: Two silver stimulating electrodes were inserted through the chest wall and implanted in the left ventricle. Square wave stimulation was used to determine threshold current for capture, ventricular fibrillation threshold current, and effective refractory period (Howard, P. G. and Walker, M. J. A., Proc. West. Pharmacol. Soc. 33:123-127 (1990)). […] The threshold current for capture is represented by "iT". The fibrillation threshold current is represented by "VFT". The effective refracting period is represented by "ERP".

cardiac sodium channel [1] = target: T1, cardiac sodium channel (Rattus norvegicus, UniProt P15389); experiment: Electrical stimulation of left ventricle in rats (iT, VFT; cardiac sodium channel blockade); assay type: in vivo; settings: infusion rate for 25% increase from control; anesthetized rats
T1 sequence (P15389 whole entry, the tested form may be a part): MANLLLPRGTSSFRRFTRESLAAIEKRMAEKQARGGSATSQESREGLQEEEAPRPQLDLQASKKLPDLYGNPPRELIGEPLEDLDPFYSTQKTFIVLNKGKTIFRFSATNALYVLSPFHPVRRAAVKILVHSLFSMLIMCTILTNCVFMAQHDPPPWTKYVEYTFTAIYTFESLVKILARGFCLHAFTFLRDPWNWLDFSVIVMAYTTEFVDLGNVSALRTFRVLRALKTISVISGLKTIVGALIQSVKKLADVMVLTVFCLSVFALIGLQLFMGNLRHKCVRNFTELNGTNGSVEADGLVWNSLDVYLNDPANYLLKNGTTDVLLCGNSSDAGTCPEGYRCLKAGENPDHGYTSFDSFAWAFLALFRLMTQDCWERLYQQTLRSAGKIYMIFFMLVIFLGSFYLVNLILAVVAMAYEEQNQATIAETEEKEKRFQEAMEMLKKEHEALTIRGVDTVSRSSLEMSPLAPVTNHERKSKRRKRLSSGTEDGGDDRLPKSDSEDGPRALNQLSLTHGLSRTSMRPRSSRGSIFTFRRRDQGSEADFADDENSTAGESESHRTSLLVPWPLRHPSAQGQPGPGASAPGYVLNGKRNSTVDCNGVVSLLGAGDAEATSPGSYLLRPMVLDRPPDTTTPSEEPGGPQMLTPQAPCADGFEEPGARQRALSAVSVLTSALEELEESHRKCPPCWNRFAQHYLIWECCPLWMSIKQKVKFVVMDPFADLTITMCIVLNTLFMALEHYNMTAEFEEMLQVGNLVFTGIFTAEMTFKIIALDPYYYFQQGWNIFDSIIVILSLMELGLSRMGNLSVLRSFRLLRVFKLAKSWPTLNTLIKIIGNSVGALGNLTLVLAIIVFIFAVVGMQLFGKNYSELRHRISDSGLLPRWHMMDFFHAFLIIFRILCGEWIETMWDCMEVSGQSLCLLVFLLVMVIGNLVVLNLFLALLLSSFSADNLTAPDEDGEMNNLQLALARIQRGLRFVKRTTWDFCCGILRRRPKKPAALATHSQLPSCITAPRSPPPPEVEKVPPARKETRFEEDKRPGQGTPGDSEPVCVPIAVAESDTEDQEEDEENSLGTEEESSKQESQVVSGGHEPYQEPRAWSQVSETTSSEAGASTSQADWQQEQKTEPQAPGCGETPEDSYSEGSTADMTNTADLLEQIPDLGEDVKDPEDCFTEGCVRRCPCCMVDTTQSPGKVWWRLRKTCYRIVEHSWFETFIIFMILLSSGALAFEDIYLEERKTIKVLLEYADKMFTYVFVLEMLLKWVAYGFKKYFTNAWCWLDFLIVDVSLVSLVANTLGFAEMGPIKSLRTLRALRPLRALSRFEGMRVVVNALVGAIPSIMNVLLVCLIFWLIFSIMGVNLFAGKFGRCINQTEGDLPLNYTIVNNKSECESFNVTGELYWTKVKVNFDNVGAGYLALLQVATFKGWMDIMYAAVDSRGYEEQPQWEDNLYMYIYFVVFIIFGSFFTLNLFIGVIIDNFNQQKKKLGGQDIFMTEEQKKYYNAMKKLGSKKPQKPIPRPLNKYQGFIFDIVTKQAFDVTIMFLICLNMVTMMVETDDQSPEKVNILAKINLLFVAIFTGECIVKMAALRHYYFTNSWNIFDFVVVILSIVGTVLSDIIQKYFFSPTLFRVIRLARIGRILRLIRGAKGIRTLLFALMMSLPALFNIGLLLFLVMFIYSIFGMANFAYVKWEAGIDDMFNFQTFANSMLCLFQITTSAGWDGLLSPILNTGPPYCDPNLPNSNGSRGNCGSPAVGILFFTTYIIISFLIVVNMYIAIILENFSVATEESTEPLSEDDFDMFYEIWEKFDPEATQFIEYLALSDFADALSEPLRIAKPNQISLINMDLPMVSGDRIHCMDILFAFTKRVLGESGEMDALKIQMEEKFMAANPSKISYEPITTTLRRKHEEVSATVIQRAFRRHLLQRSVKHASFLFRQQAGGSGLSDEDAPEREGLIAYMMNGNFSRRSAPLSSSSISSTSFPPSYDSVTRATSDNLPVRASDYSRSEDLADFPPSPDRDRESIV
Method: Rats were prepared according to the preceding procedure. Two silver stimulating electrodes were inserted through the chest wall and implanted in the left ventricle. Square wave stimulation was used to determine threshold current for capture, ventricular fibrillation threshold current, and effective refractory period (Howard, P. G. and Walker, M. J. A., Proc. West. Pharmacol. Soc. 33:123-127 (1990)). Table 5 contains ED25 values for these indices of cardiac sodium channel blockade, where the ED25 is the infusion rate in micromoles/kg/minute of compound required to elicit a 25% increase from control. The increases in refractoriness indicate ancillary blockade of potassium channels. The threshold current for capture is represented by "iT". The fibrillation threshold current is represented by "VFT". The effective refracting period is represented by "ERP".

cardiac sodium channel [2] = target: T1, cardiac sodium channel; experiment: ECG parameters in anesthetized rats (RSh, PR, QRS; cardiac sodium channel blockade); assay type: in vivo; settings: i.v. bolus; for ED25 PR (dose required to produce a 25% increase): P-R interval; for ED25 QRS (dose required to produce a 25% increase): QRS interval
Method: Rats weighing 200-250 gms were used in this example. Animals were anesthetized with 60 mg/kg pentobarbitone i.p. The carotid artery and jugular vein were cannulated for measurement of blood pressure and drug injection, respectively. ECG was recorded by insertion of electrodes placed along the anatomical axis of the heart. All compounds were given as bolus injections.
Various ECG parameters were measured. The most sensitive of these for measuring sodium channel blockade is RSh (J. Pharmacology Methods 27:51-58 (1992)). Table 4 describes the results of the tests as ED25 (micromoles/kg) which are the doses required to produce a 25% increase in the parameter measured (ne=not estimated). The increases in P-R interval, QRS interval and RSh indicate cardiac sodium channel blockade while the increase in Q-T interval indicates ancillary cardiac potassium channel blockade which is the property of a type 1 a antiarrhythmic.

[3] = test system: conscious rats subject to coronary artery occlusion; experiment: Antiarrhythmic efficacy: incidence of cardiac arrhythmias in conscious rats subject to coronary artery occlusion; assay type: in vivo, rat; settings: score 0-9 per Table 2, 30 min after occlusion
Method: Antiarrhythmic efficacy was assessed by investigating the effect of a compound on the incidence of cardiac arrhythmias in conscious rats subject to coronary artery occlusion. Rats weighing 200-300 gms were subjected to preparative surgery and assigned to groups in a random block design. In each case, the animal was anesthetized with halothane during surgical preparation. The left femoral artery was cannulated for measurement of mean arterial blood pressure and withdrawal of blood samples. The left femoral vein was also cannulated for injection of drugs. The thoracic cavity was opened and a polyethylene occluder loosely placed around the left anterior descending coronary artery. The thoracic cavity was then closed. ECG was recorded by insertion of electrodes placed along the anatomical axis of the heart. All cannulae and electrode leads were exteriorized in the mid scapular region. In random and double-blind manner, about 0.5 to 2 hours post-surgery, an infusion of vehicle, or the compound to be tested was given. After 15 minutes infusion, the occluder was pulled so as to produce coronary artery occlusion. ECG, arrhythmias, blood pressure, heart rate and mortality were monitored for 30 minutes after occlusion. Arrhythmias were recorded as ventricular tachycardia (VT) and ventricular fibrillation (VF) and scored according to Curtis, M. J. and Walker, M. J. A., Cardiovasc.
VPB=ventricular premature beats
VT=ventricular tachycardia
VF=ventricular fibrillation
Occlusion is associated with increases in R-wave height and "S-T" segment elevation; and an occluded zone (measured after death by cardiogreen dye perfusion) in the range of 25%-50% of total left-ventricular weight.

[4] = test system: cardiac potassium channel; experiment: ECG parameters in anesthetized rats (QT; ancillary cardiac potassium channel blockade); assay type: in vivo, rat; settings: i.v. bolus, Q-T interval
Method: Various ECG parameters were measured. […] The increases in P-R interval, QRS interval and RSh indicate cardiac sodium channel blockade while the increase in Q-T interval indicates ancillary cardiac potassium channel blockade which is the property of a type 1 a antiarrhythmic.

cardiac sodium channel [5] = target: T1, cardiac sodium channel; experiment: Whole cell voltage clamp tests, single isolated adult rat cardiac cells; assay type: cell-based
Method: In order to directly measure cardiac sodium channel blockade, standard whole cell voltage clamp tests were carried out using single isolated adult rat cardiac cells. Results in the form of EC50 values, which are micromolar concentrations required to produce a 50% reduction in sodium current, are presented in Table 6.

phrenic nerve diaphragm = experiment: Nerve conduction blockade in vitro, phrenic nerve diaphragm; settings: Rattus norvegicus, read-out: concentration at which the twitch response from electrical stimulation is reduced to 50% of control value
Method: In order to establish the potency of the compounds to block nerve conduction, two in vitro assays were used. The first was the phrenic nerve diaphragm of the rat. […] Nerve blockade in these preparations is indicative of local anesthetic activity. Compounds were administered to the bath solution in increasing concentrations while the preparations were being stimulated with regular electrical impulses.

[6] = test system: hypogastric nerve vas deferens; experiment: Nerve conduction blockade in vitro, hypogastric nerve vas deferens; settings: read-out: concentration at which the twitch response from electrical stimulation is reduced to 50% of control value
Method: In order to establish the potency of the compounds to block nerve conduction, two in vitro assays were used. The first was the phrenic nerve diaphragm of the rat. The second was the hypogastric nerve vas deferens. Nerve blockade in these preparations is indicative of local anesthetic activity. Compounds were administered to the bath solution in increasing concentrations while the preparations were being stimulated with regular electrical impulses.

[7] = whole cell voltage clamp, isolated adult rat cardiac cells, read-out: EC50 (concentration required to produce a 50% reduction in sodium current)
[8] = dose 8 micromoles/kg/min infusion
[9] = dose 4 micromoles/kg/min infusion

## Cl.O=C(O[C@@H]1CCCC[C@H]1N1CCOCC1)c1cccc2ccccc12 (racemic) [Compound #15, (±)-trans-[2-(4-morpholinyl)cyclohexyl]-1-naphthoate monohydrochloride]
Potassium channels
  ED25 ERP (effective refractory period): 20 µmol/kg/min
Cardiac sodium channel [1]
  ED25 VFT (fibrillation threshold current): 18 µmol/kg/min
  ED25 iT (threshold current for capture): 33 µmol/kg/min
Cardiac sodium channel [2]
  ED25 PR (dose required to produce a 25% increase): 340 µmol/kg
  ED25 QRS (dose required to produce a 25% increase): 90 µmol/kg
  ED25 RSh (dose required to produce a 25% increase): 80 µmol/kg
[3]; dose 12 micromoles/kg/min infusion
  AS (arrhythmia score): 2

## Cl.O=C(Cc1cccc2sccc12)O[C@@H]1CCCC[C@H]1N1CCOCC1 (racemic) [Compound #16, (±)-trans-[2-(4-morpholinyl)cyclohexyl]benzo[b]thiophene-4-acetate monohydrochloride]
[4]
  ED25 QT (dose required to produce a 25% increase): 33 µmol/kg
Cardiac sodium channel [5]; [7]
  EC50: 225 µM
Potassium channels
  ED25 ERP (effective refractory period): 5 µmol/kg/min
Cardiac sodium channel [1]
  ED25 VFT (fibrillation threshold current): 2 µmol/kg/min
  ED25 iT (threshold current for capture): 15 µmol/kg/min
Cardiac sodium channel [2]
  ED25 PR (dose required to produce a 25% increase): 230 µmol/kg
  ED25 QRS (dose required to produce a 25% increase): 690 µmol/kg
  ED25 RSh (dose required to produce a 25% increase): 23 µmol/kg
[3]; [8]
  AS (arrhythmia score): 0.3

## O=C(COc1ccc(Cl)c(Cl)c1)O[C@@H]1CCCC[C@H]1N1CCCC1 (relative stereo) [Compound #1, (±)-trans-[2-(1-pyrrolidinyl)cyclohexyl](3,4-dichlorophenoxy)acetate monohydrochloride]
Phrenic nerve diaphragm
  IC50: 90 µM
[4]
  ED25 QT (dose required to produce a 25% increase): 78 µmol/kg
Cardiac sodium channel [5]
  EC50: 200 µM
Potassium channels
  ED25 ERP (effective refractory period): 4 µmol/kg/min
Cardiac sodium channel [1]
  ED25 VFT (fibrillation threshold current): 3 µmol/kg/min
  ED25 iT (threshold current for capture): 6 µmol/kg/min
[6]
  IC50: 40 µM
Cardiac sodium channel [2]
  ED25 PR (dose required to produce a 25% increase): 17 µmol/kg
  ED25 RSh (dose required to produce a 25% increase): 10 µmol/kg

## O=C(COc1ccc(Cl)c(Cl)c1)O[C@@H]1CCCC[C@H]1N1CC2CCC(CC2)C1 (relative stereo) [Compound #3, (±)-trans-{2-[N-(3-azabicyclo[3.2.2]nonyl)]cyclohexyl}(3,4-dichlorophenoxy)acetate monohydrochloride]
Phrenic nerve diaphragm
  IC50: 200 µM
[4]
  ED25 QT (dose required to produce a 25% increase): 160 µmol/kg
Cardiac sodium channel [5]
  EC50: > 150 µM
[6]
  IC50: 300 µM
Cardiac sodium channel [2]
  ED25 PR (dose required to produce a 25% increase): 140 µmol/kg
  ED25 QRS (dose required to produce a 25% increase): 130 µmol/kg
  ED25 RSh (dose required to produce a 25% increase): 140 µmol/kg

## O=C(COc1ccc(Cl)c(Cl)c1)O[C@@H]1CCCC[C@H]1N1CCOCC1 (relative stereo) [Compound #4, (±)-trans-[2-(4-morpholinyl)cyclohexyl](3,4-dichlorophenoxy)acetate monohydrochloride]
Cardiac sodium channel [5]; [7]
  EC50: > 500 µM
Cardiac sodium channel [2]
  ED25 PR (dose required to produce a 25% increase): 44 µmol/kg
  ED25 RSh (dose required to produce a 25% increase): 10 µmol/kg
[3]; dose 5 micromoles/kg/min infusion
  AS (arrhythmia score): 3.6

## O=C(COc1ccc(Cl)c(Cl)c1)O[C@@H]1CCCC[C@H]1N1CCCCCC1 (relative stereo) [Compound #5, (±)-trans-[2-(1-hexahydroazepinyl)cyclohexyl](3,4-dichlorophenoxy)acetate monohydrochloride]
Phrenic nerve diaphragm
  IC50: 180 µM
[4]
  ED25 QT (dose required to produce a 25% increase): 45 µmol/kg
Potassium channels
  ED25 ERP (effective refractory period): 4 µmol/kg/min
Cardiac sodium channel [1]
  ED25 VFT (fibrillation threshold current): 4 µmol/kg/min
  ED25 iT (threshold current for capture): 5 µmol/kg/min
[6]
  IC50: 100 µM
Cardiac sodium channel [2]
  ED25 PR (dose required to produce a 25% increase): 43 µmol/kg
  ED25 QRS (dose required to produce a 25% increase): 66 µmol/kg
  ED25 RSh (dose required to produce a 25% increase): 36 µmol/kg
[3]; [9]
  AS (arrhythmia score): 3

## O=C(CC1CCCCC1)O[C@@H]1CCCC[C@H]1N1CCCC1 (relative stereo) [Compound #7, (±)-trans-[2-(1-pyrrolidinyl)cyclohexyl](cyclohexyl)acetate monohydrochloride]
[4]
  ED25 QT (dose required to produce a 25% increase): 41 µmol/kg
Cardiac sodium channel [2]
  ED25 PR (dose required to produce a 25% increase): 84 µmol/kg
  ED25 RSh (dose required to produce a 25% increase): 6 µmol/kg

## O=C(Cc1cccc2ccccc12)O[C@@H]1CCCC[C@H]1N1CCOCC1 (relative stereo) [Compound #8, (±)-trans-[2-(4-morpholinyl)cyclohexyl]naphthyl-1-acetate monohydrochloride]
[4]
  ED25 QT (dose required to produce a 25% increase): 57 µmol/kg
Cardiac sodium channel [5]; [7]
  EC50: 80 µM
Potassium channels
  ED25 ERP (effective refractory period): 4 µmol/kg/min
Cardiac sodium channel [1]
  ED25 VFT (fibrillation threshold current): 2 µmol/kg/min
  ED25 iT (threshold current for capture): 5 µmol/kg/min
Cardiac sodium channel [2]
  ED25 PR (dose required to produce a 25% increase): 20 µmol/kg
  ED25 QRS (dose required to produce a 25% increase): 42 µmol/kg
  ED25 RSh (dose required to produce a 25% increase): 11 µmol/kg
[3]; dose 2 micromoles/kg/min infusion
  AS (arrhythmia score): 3

## O=C(Cc1ccc2ccccc2c1)O[C@@H]1CCCC[C@H]1N1CCOCC1 (relative stereo) [Compound #9, (±)-trans-[2-(4-morpholinyl)cyclohexyl]naphthyl-2-acetate monohydrochloride]
[4]
  ED25 QT (dose required to produce a 25% increase): 20 µmol/kg
Cardiac sodium channel [5]; [7]
  EC50: > 100 µM
Potassium channels
  ED25 ERP (effective refractory period): 8 µmol/kg/min
Cardiac sodium channel [1]
  ED25 VFT (fibrillation threshold current): 7 µmol/kg/min
  ED25 iT (threshold current for capture): 34 µmol/kg/min
Cardiac sodium channel [2]
  ED25 RSh (dose required to produce a 25% increase): 13 µmol/kg
[3]; [9]
  AS (arrhythmia score): 1.3

## O=C(Cc1ccccc1)O[C@@H]1CCCC[C@H]1N1CCOCC1 (relative stereo) [Compound #10, (±)-trans-[2-(4-morpholinyl)cyclohexyl]phenylacetate monohydrochloride]
[4]
  ED25 QT (dose required to produce a 25% increase): 25 µmol/kg
Cardiac sodium channel [5]
  EC50: > 300 µM
Potassium channels
  ED25 ERP (effective refractory period): 8 µmol/kg/min
Cardiac sodium channel [1]
  ED25 VFT (fibrillation threshold current): 1 µmol/kg/min
  ED25 iT (threshold current for capture): 15 µmol/kg/min
Cardiac sodium channel [2]
  ED25 RSh (dose required to produce a 25% increase): 16 µmol/kg
[3]; dose 10 micromoles/kg/min infusion
  AS (arrhythmia score): 2.2

## O=C(Cc1ccc([N+](=O)[O-])cc1)O[C@@H]1CCCC[C@H]1N1CCOCC1 (relative stereo) [Compound #12, (+5-trans-[2-(4-morpholinyl)cyclohexyl](4-nitrophenyl)acetatemonohydrochloride]
[4]
  ED25 QT (dose required to produce a 25% increase): 44 µmol/kg
Cardiac sodium channel [5]; [7]
  EC50: > 300 µM
Potassium channels
  ED25 ERP (effective refractory period): 6 µmol/kg/min
Cardiac sodium channel [1]
  ED25 VFT (fibrillation threshold current): 5 µmol/kg/min
  ED25 iT (threshold current for capture): 4 µmol/kg/min
Cardiac sodium channel [2]
  ED25 PR (dose required to produce a 25% increase): 64 µmol/kg
  ED25 QRS (dose required to produce a 25% increase): 82 µmol/kg
  ED25 RSh (dose required to produce a 25% increase): 17 µmol/kg
[3]; [8]
  AS (arrhythmia score): 3
